Columns and labels:
[1] = tested on: EVSA-T cells; test: Cell proliferation assay (CellTiter-Glo), EVSA-T; type: cell-based; settings: Homo sapiens, EVSA-T, 72 h, 72 h treatment, Celltiter-Glo luminescence
How it was run: (§1)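 Compounds tested over ten concentrations ([…]) for 72 h on EVSA-T cells in MEM/10% FBS and MDA-MB-231 cells in RPMI-1640/10% FBS, seeded at 10000/well. Luminescent CellTiter-Glo readout; IC50 fitted after normalisation to controls.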

[2] = tested on: MDA-MB-231 cells; test: Cell proliferation assay (CellTiter-Glo), MDA-MB-231; type: cell-based; settings: Homo sapiens, MDA-MB-231, 72 h, 72 h treatment, Celltiter-Glo luminescence
How it was run: as §1

SMILES	IC50 [1]	IC50 [2]
C[C@@H]1CN(CC(=O)N2CC(C)(C)c3c2cc(Cc2ccc(F)cc2)c2c(C(N)=O)cnn32)[C@@H](CN2CCOC[C@H]2C)CN1 [Compound 149, 4-(4-fluorobenzyl)-8,8-dimethyl-6-(2-((2R,5R)-5-methyl-2-(((R)-3-methylmorpholino)methyl)piperazin-1-yl)acetyl)-7,8-dihydro-6H-pyrazolo[1,5-a]pyrrolo[2,3-e]pyridine-3-carboxamide]	7 nM	100 nM
C[C@@H]1CN(CC(=O)N2CC(C)(C)c3c2cc(Cc2ccc(F)cc2)c2nn(CC(O)C4CC4)c(=O)n32)[C@@H](CN2CCOC[C@H]2C)CN1 (stereo partly drawn) [Compound 270, 2-(2-cyclopropyl-2-hydroxyethyl)-4-(4-fluorobenzyl)-8,8-dimethyl-6-(2-((2R,5R)-5-methyl-2-(((R)-3-methylmorpholino)methyl)piperazin-1-yl)acetyl)-2,6,7,8-tetrahydro-1H-pyrrolo[2,3-e][1,2,4]triazolo[4,3-a]pyridin-1-one]	11.5 nM	51 nM
Cc1nc2c(Cc3ccc(F)cc3)cc3c(n2c1C)C(C)(C)CN3C(=O)CN1C[C@@H](C)NC[C@@H]1CN1CCOC[C@H]1C [Compound 109, 1-(4-(4-fluorobenzyl)-1,2,8,8-tetramethyl-7,8-dihydro-6H-imidazo[1,2-a]pyrrolo[2,3-e]pyridin-6-yl)-2-((2R,5R)-5-methyl-2-(((R)-3-methylmorpholino)methyl)piperazin-1-yl)ethan-1-one]	9 nM	61 nM
C[C@@H]1CN(CC(=O)N2CC(C)(C)c3c2cc(Cc2ccc(F)cc2)c2nc(-c4cncnc4)nn32)[C@@H](CN2CCOC[C@H]2C)CN1 [Compound 184, 1-(4-(4-fluorobenzyl)-8,8-dimethyl-2-(pyrimidin-5-yl)-7,8-dihydro-6H-pyrrolo[2,3-e][1,2,4]triazolo[1,5-a]pyridin-6-yl)-2-((2R,5R)-5-methyl-2-(((R)-3-methylmorpholino)methyl)piperazin-1-yl)ethan-1-one]	6 nM	17 nM
C[C@@H]1CN(CC(=O)N2CC(C)(C)c3c2cc(Cc2ccc(F)cc2)c2nc(C4CCOCC4)nn32)[C@@H](CN2CCOC[C@H]2C)CN1 [Compound 140, 1-(4-(4-fluorobenzyl)-8,8-dimethyl-2-(tetrahydro-2H-pyran-4-yl)-7,8-dihydro-6H-pyrrolo[2,3-e][1,2,4]triazolo[1,5-a]pyridin-6-yl)-2-((2R,5R)-5-methyl-2-(((R)-3-methylmorpholino)methyl)piperazin-1-yl)ethan-1-one]	3 nM	45 nM
C[C@@H]1CN(CC(=O)N2CC3(CCOCC3)c3c2cc(Cc2ccc(F)cc2)c2ncnn32)[C@@H](CN2CCOC[C@H]2C)CN1 [Compound 180, 1-(4′-(4-fluorobenzyl)-2,3,5,6-tetrahydrospiro[pyran-4,8′-pyrrolo[2,3-e][1,2,4]triazolo[1,5-a]pyridin]-6′(7′H)-yl)-2-((2R,5R)-5-methyl-2-(((R)-3-methylmorpholino)methyl)piperazin-1-yl)ethan-1-one]	56 nM	615 nM
C[C@@H]1CN(CC(=O)N2CC(C)(C)c3c2cc(Cc2ccc(F)cc2)c2nc(CF)cn32)[C@@H](CN2CCOC[C@H]2C)CN1 [Compound 121, 1-(4-(4-fluorobenzyl)-2-(fluoromethyl)-8,8-dimethyl-7,8-dihydro-6H-imidazo[1,2-a]pyrrolo[2,3-e]pyridin-6-yl)-2-((2R,5R)-5-methyl-2-(((R)-3-methylmorpholino)methyl)piperazin-1-yl)ethan-1-one]	5 nM	65 nM
CCOC(=O)c1cn2c3c(cc(Cc4ccc(F)cc4)c2n1)N(C(=O)CN1C[C@@H](C)NC[C@@H]1CN1CCOC[C@H]1C)CC3(C)C [Example 18, ethyl 4-(4-fluorobenzyl)-8,8-dimethyl-6-(2-((2R,5R)-5-methyl-2-(((R)-3-methylmorpholino)methyl)piperazin-1-yl)acetyl)-7,8-dihydro-6H-imidazo[1,2-a]pyrrolo[2,3-e]pyridine-2-carboxylate]	14 nM	74 nM
C[C@@H]1CN(CC(=O)N2CC(C)(C)c3c2cc(Cc2ccc(F)cc2)c2nc(C(F)(F)F)cn32)[C@@H](CN2[C@@H](C)COC[C@@H]2C)CN1 [Compound 162, 2-((2R,5R)-2-(((3S,5S)-3,5-dimethylmorpholino)methyl)-5-methylpiperazin-1-yl)-1-(4-(4-fluorobenzyl)-8,8-dimethyl-2-(trifluoromethyl)-7,8-dihydro-6H-imidazo[1,2-a]pyrrolo[2,3-e]pyridin-6-yl)ethan-1-one]	10 nM	46 nM
C[C@@H]1CN(CC(=O)N2CC(C)(C)c3c2cc(Cc2ccc(F)cc2)c2ncnn32)[C@@H](CN2Cc3cccc(F)c3C2=O)CN1 [Compound 207, 7-fluoro-2-(((2R,5R)-1-(2-(4-(4-fluorobenzyl)-8,8-dimethyl-7,8-dihydro-6H-pyrrolo[2,3-e][1,2,4]triazolo[1,5-a]pyridin-6-yl)-2-oxoethyl)-5-methylpiperazin-2-yl)methyl)isoindolin-1-one]	2 nM	20 nM
C[C@@H]1CN(CC(=O)N2CC(C)(C)c3c2cc(Cc2ccc(F)cc2)c2nc(C#N)cn32)[C@@H](CN2CCOC[C@H]2C)CN1 [Example 21, 4-(4-fluorobenzyl)-8,8-dimethyl-6-(2-((2R,5R)-5-methyl-2-(((R)-3-methylmorpholino)methyl)piperazin-1-yl)acetyl)-7,8-dihydro-6H-imidazo[1,2-a]pyrrolo[2,3-e]pyridine-2-carbonitrile]	5 nM	23 nM
C[C@@H]1CN(CC(=O)N2CC(C)(C)c3c2cc(Cc2ccc(F)cc2)c2nccn32)[C@@H](CN2CCOC[C@H]2C)CN1 [Example 17, 1-(4-(4-fluorobenzyl)-8,8-dimethyl-7,8-dihydro-6H-imidazo[1,2-a]pyrrolo[2,3-e]pyridin-6-yl)-2-((2R,5R)-5-methyl-2-(((R)-3-methylmorpholino)methyl)piperazin-1-yl)ethan-1-one]	4 nM	120 nM
C[C@@H]1CN(CC(=O)N2CC(C)(C)c3c2cc(Cc2ccc(F)cc2)c2nn(CC(C)(C)O)c(=O)n32)[C@@H](CN2CCOCC23CC3)CN1 [Compound 278, 6-(2-((2R,5R)-2-((7-oxa-4-azaspiro[2.5]octan-4-yl)methyl)-5-methylpiperazin-1-yl)acetyl)-4-(4-fluorobenzyl)-2-(2-hydroxy-2-methylpropyl)-8,8-dimethyl-2,6,7,8-tetrahydro-1H-pyrrolo[2,3-e][1,2,4]triazolo[4,3-a]pyridin-1-one]	9.7 nM	39 nM
C[C@@H]1CN(CC(=O)N2CC(C)(C)c3c2cc(Cc2ccc(F)cc2)c2ncnn32)[C@@H](CN2Cc3cccnc3C2=O)CN1 [Compound 98, 6-(((2R,5R)-1-(2-(4-(4-fluorobenzyl)-8,8-dimethyl-7,8-dihydro-6H-pyrrolo[2,3-e][1,2,4]triazolo[1,5-a]pyridin-6-yl)-2-oxoethyl)-5-methylpiperazin-2-yl)methyl)-5,6-dihydro-7H-pyrrolo[3,4-b]pyridin-7-one]	8 nM	72 nM
COCCn1nc2c(Cc3ccc(F)cc3)cc3c(n2c1=O)C(C)(C)CN3C(=O)CN1C[C@@H](C)NC[C@@H]1CN1CCOC[C@H]1C [Compound 227, 4-(4-fluorobenzyl)-2-(2-methoxyethyl)-8,8-dimethyl-6-(2-((2R,5R)-5-methyl-2-(((R)-3-methylmorpholino)methyl)piperazin-1-yl)acetyl)-2,6,7,8-tetrahydro-1H-pyrrolo[2,3-e][1,2,4]triazolo[4,3-a]pyridin-1-one]	2 nM	82 nM
C[C@@H]1CN(CC(=O)N2CC(C)(C)c3c2cc(Cc2ccc(F)cc2)c2nn(Cc4cncnc4)c(=O)n32)[C@@H](CN2CCOC[C@H]2C)CN1 [Compound 236, 4-(4-fluorobenzyl)-8,8-dimethyl-6-(2-((2R,5R)-5-methyl-2-(((R)-3-methylmorpholino)methyl)piperazin-1-yl)acetyl)-2-(pyrimidin-5-ylmethyl)-2,6,7,8-tetrahydro-1H-pyrrolo[2,3-e][1,2,4]triazolo[4,3-a]pyridin-1-one]	0.7 nM	87 nM
C[C@@H]1CN(CC(=O)N2CC(C)(C)c3c2cc(Cc2ccc(F)cc2)c2nn(CC(C)(C)O)c(=O)n32)[C@@H](CN2CCOC[C@H]2C)CN1 [Compound 231, 4-(4-fluorobenzyl)-2-(2-hydroxy-2-methylpropyl)-8,8-dim ethyl-6-(2-((2R,5R)-5-methyl-2-(((R)-3-methylmorpholino)methyl)piperazin-1-yl)acetyl)-2,6,7,8-tetrahydro-1H-pyrrolo[2,3-e][1,2,4]triazolo[4,3-a]pyridin-1-one]	4 nM	28 nM
C[C@@H]1CN(CC(=O)N2CC(C)(C)c3c2cc([C@H](O)c2ccc(F)cc2)c2ncnn32)[C@@H](CN2CCOC[C@H]2C)CN1 [Compound 134, 1-(4-((R)-(4-fluorophenyl)(hydroxy)methyl)-8,8-dimethyl-7,8-dihydro-6H-pyrrolo[2,3-e][1,2,4]triazolo[1,5-a]pyridin-6-yl)-2-((2R,5R)-5-methyl-2-(((R)-3-methylmorpholino)methyl)piperazin-1-yl)ethan-1-one]	83 nM	190 nM
CC(=O)c1nc2c(Cc3ccc(F)cc3)cc3c(n2n1)C(C)(C)CN3C(=O)CN1C[C@@H](C)NC[C@@H]1CN1CCOC[C@H]1C [Compound 224, 1-(2-acetyl-4-(4-fluorobenzyl)-8,8-dimethyl-7,8-dihydro-6H-pyrrolo[2,3-e][1,2,4]triazolo[1,5-a]pyridin-6-yl)-2-((2R,5R)-5-methyl-2-(((R)-3-methylmorpholino)methyl)piperazin-1-yl)ethan-1-one]	2 nM	120 nM

— patent publication US20250179073A1, “TRICYCLIC HETEROCYCLE COMPOUNDS AS IAP ANTAGONISTS” (Ascentage Pharma (Suzhou) Co., Ltd., priority 2022, published 2025)
